pEC50, pKi: −log10 of the molar value.
What was measured:
[1] = biological target: human Somatostatin 4 receptor (SSTR4) (Homo sapiens (Human), UniProt P31391); experiment: cAMP assay with human Somatostatin 4 receptor; format: cell-based; conditions: hSSTR4 expressing H4 cells, inhibition of Forskolin-stimulated cAMP; read-out: SSTR4 agonism EC50
Protocol: Method description for cAMP assay with human Somatostatin 4 receptor.
The activation of the SSTR4 receptor (Gi coupled) causes an inhibition of intracellular cAMP after stimulation with Forskolin, which can be quantifiable by use of a suitable assay Kit and an adequate plate reader. This technique is used to characterize pharmacological effects of the SSTR4 receptor agonists by use of hSSTR4 expressing H4 cells.
Compounds are dissolved and diluted in DMSO. The final test solution contains […]. The cAMP standard (Lance cAMP 384 Kit; PerkinElmer, Cat #AD0264) is prepared in assay buffer (HBSS with 0.1% BSA, 5 mM HEPES, […], pH 7.4) containing 1% DMSO and the cAMP standard curve is included at least on one plate. Cells are centrifuged and suspended in assay buffer (incl. 1:100 diluted Alexa antibody).
For the assay 5 μl of a cell suspension (approximately 5000 cells/well)—incl. Alexa antibody (diluted 1:100) are added into a 384 well MTP microtitre plate excepting one row or column (depending on the plate layout), which is reserved for the standard curve. Then 2 μl of compound sample is added as concentration response curve (e.g. 1e-5 M to 6e-10 M), usually in triplicates. Each assay contains incubations with vehicle controls instead of compound as controls for non-inhibited cAMP generation (100% CTL; ‘high values’) and incubations with 1 μM Somatosatin as controls for full inhibition and background (0% CTL; ‘low values’). After approximately 10-15 min incubation time 3 μl Forskolin (dissolved in DMSO, final conc. 15 μM) is added. Then the plates are shaken briefly and incubated for 60 min at room temperature. After 60 min 10 μl of the detection mix is added into all wells followed by an additional incubation period of 1 h. The plates are read in a suitable plate reader.
The analysis of the data is based on the “ratio” of the time-resolved fluorescence measurements of donor and acceptor fluorophore (Ex: 320 nm; Em1: 665 nm; Em2: 615 nm; ratio 665/615). From this ratio, cAMP concentrations are calculated from standard curve and the EC50 is estimated by least square curve fit program.

[2] = Metabolic stability in human liver microsomes; format: in vitro ADME; conditions: pooled human liver microsomes, 37° C., 1 μM test compound, NADPH; for half-life at 1 μM: pH 7.6, read-out: Half-life t1/2
Protocol: The metabolic stability of the compounds according to the invention may be investigated as follows:
The metabolic degradation of the test compound is assayed at 37° C. with pooled human liver microsomes. The final incubation volume of 100 μl per time point contains TRIS buffer pH 7.6 at room temperature (0.1 M), magnesium chloride (5 mM), microsomal protein (1 mg/mL) and the test compound at a final concentration of 1 μM. Following a short preincubation period at 37° C., the reactions are initiated by addition of beta-nicotinamide adenine dinucleotide phosphate, reduced form (NADPH, 1 mM), and terminated by transferring an aliquot into solvent after different time points. After centrifugation (10000 g, 5 min), an aliquot of the supernatant is assayed by LC-MS/MS for the amount of parent compound. The half-life is determined by the slope of the semi-logarithmic plot of the concentration-time profile.

[3] = biological target: human SSTR4 (Homo sapiens (Human), UniProt P31391); experiment: Radioligand binding assay, human SSTR4
Excerpt: (§1) Radioligand Binding Assays
(§2) Method description for binding assays with human Somatostatin receptors by use of CHO cell membranes expressing recombinant human SSTR1 or human SSTR2 or human SSTR3 or human SSTR4 or human SSTR5
(§3) Receptor binding assays refer to a technique in which labeled receptor ligands are used to detect binding to a receptor. In competition experiments test compounds, which are not labeled, compete with the binding side of a labeled ligand. The displacement of the labeled ligand by the test compound leads to a decreased signal.
(§4) For the binding experiments 200 μL of membrane homogenate from one of the following protein amounts is used: hSSTR1 (40 μg/well); hSSTR2 (25 μg/well); hSSTR3 (1.5 μg/well); hSSTR4 (0.5 μg/well); hSSTR5 (25 μg/well). The homogenate is incubated with 0.05 nM of radioligand ([3-125I-Tyr]-Somatostatin-(1-14)) in addition to increasing concentrations of a test compound or vehicle (100% binding) in a total volume of 250 μL using a Hepes buffer (10 mM, EDTA 1 mM, MgCl2 5 mM, pH7.6, BSA 0.5%, Bacitracin 0.003%, DMSO 1% for 180 min at room temperature. The incubation is terminated by filtration with ice cold NaCl 0.9% through polyethyleneimine treated (0.3%) GF/B glass fiber filters using a cell harvester. The protein-bound radioactivity is measured in a suitable reader. The non-specific binding is defined as radioactivity bound in the presence of 1 μM Somatostatin-14 during the incubation period.
(§5) The analysis of the concentration-binding curves is performed by computer-assisted nonlinear least square curve fitting method using the model of one receptor binding site.

[4] = biological target: human SSTR1 (Homo sapiens (Human), UniProt P30872); experiment: Radioligand binding assay, human SSTR1
Excerpt: as §1, §2, §3, §4, §5

[5] = biological target: human SSTR2 (Homo sapiens (Human), UniProt P30874); experiment: Radioligand binding assay, human SSTR2
Excerpt: as §1, §2, §3, §4, §5

[6] = biological target: human SSTR3 (Homo sapiens (Human), UniProt P32745); experiment: Radioligand binding assay, human SSTR3
Excerpt: as §1, §2, §3, §4, §5

[7] = biological target: human SSTR5 (Homo sapiens (Human), UniProt P35346); experiment: Radioligand binding assay, human SSTR5
Excerpt: as §1, §2, §3, §4, §5

human SSTR2, sequence (P30874 whole entry): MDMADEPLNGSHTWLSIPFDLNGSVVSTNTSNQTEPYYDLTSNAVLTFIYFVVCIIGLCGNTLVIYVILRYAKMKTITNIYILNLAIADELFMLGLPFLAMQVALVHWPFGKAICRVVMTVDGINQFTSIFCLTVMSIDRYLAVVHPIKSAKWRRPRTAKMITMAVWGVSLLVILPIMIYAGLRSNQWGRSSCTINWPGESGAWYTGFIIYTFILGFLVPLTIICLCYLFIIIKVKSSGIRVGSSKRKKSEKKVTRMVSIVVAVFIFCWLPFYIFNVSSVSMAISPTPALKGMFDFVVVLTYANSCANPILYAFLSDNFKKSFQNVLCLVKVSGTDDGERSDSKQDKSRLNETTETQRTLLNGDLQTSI
human SSTR3, sequence (P32745 whole entry): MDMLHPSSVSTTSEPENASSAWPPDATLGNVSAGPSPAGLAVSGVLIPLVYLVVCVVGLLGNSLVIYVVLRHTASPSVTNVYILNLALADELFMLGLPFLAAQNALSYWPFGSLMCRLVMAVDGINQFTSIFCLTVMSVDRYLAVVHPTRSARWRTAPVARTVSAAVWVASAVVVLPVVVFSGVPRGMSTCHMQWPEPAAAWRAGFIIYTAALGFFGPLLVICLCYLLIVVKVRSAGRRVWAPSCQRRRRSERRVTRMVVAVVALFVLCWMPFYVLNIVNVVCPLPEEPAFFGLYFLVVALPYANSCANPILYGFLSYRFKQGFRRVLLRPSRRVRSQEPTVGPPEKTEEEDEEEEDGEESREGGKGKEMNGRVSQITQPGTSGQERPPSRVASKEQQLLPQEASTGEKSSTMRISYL
human SSTR1, sequence (P30872 whole entry): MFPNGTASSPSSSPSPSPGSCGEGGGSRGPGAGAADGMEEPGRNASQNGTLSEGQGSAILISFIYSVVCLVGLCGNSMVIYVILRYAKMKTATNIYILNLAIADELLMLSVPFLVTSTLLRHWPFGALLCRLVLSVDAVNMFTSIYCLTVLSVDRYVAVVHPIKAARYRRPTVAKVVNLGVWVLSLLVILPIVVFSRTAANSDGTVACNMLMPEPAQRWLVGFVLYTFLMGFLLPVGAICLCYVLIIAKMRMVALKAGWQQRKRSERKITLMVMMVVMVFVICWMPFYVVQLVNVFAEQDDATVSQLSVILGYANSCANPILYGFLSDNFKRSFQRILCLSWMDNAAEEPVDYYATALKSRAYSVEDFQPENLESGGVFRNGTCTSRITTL
human Somatostatin 4 receptor (SSTR4), sequence (P31391 whole entry): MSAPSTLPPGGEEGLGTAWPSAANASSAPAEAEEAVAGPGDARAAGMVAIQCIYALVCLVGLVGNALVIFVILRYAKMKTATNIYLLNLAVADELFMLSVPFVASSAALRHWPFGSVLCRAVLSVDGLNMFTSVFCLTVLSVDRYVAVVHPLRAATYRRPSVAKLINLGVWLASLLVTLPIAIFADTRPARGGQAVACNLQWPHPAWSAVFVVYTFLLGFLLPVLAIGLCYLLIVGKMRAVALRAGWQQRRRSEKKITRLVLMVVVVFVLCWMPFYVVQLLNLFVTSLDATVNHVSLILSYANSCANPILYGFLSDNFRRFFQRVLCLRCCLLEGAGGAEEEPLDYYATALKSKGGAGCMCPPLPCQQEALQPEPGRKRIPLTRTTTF
human SSTR4, sequence (P31391 whole entry): as above
human SSTR5, sequence (P35346 whole entry): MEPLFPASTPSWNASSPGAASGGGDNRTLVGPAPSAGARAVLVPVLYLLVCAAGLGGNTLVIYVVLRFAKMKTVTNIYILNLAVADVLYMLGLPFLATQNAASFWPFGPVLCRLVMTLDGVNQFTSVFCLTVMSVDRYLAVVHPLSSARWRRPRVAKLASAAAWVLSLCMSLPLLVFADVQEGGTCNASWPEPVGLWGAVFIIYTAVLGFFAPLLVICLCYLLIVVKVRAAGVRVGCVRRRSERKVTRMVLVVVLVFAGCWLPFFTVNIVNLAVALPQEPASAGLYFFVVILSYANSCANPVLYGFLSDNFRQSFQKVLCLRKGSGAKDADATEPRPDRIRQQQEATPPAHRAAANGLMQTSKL

Row | pEC50 [1] | half-life at 1 μM [2] [h] | Compound | also measured
1 | 8.40 | 0.533 | Cc1cccn2c(C(C)(C)NC(=O)c3cccc4c3OCCNC4)nc(C3CC3)c12 [Example 62] | 
2 | 7.84 |  | Cn1nc(C(C)(C)NC(=O)c2nccc3c2OCCNC3)c2ccccc21 [Example 19] | pKi [3]: 6.21; pKi [4]: 5.02; pKi [5]: 5.02; pKi [6]: 5.06; pKi [7]: 5.01; Half-life t1/2 [2]: 2.17 h
3 | 8.70 | 1.38 | Cc1nc(C(C)(C)NC(=O)c2cccc3c2OCCNC3)n2cccc(F)c12 [Example 50] | 
4 | 8.70 | > 2.17 | Cc1cccn2c(C(C)(C)NC(=O)c3cccc4c3OCCNC4)ncc12 [Example 47] | pKi [3]: 7.27; pKi [4]: 5.05; pKi [5]: 5.02; pKi [6]: 5.06; pKi [7]: 5.01
5 | 8.77 | 1.42 | CC(C)(NC(=O)c1cccc2c1OCCNC2)c1ncc2c(Cl)cccn12 [Example 48] | 
6 | 7.95 | > 2.17 | Cc1cccn2c(C(C)(C)NC(=O)c3cccc4c3OCCNC4)cnc12 [Example 70] | 
7 | 7.87 | > 2.17 | Cc1cccn2c(C(C)(C)NC(=O)c3nccc4c3OCCNC4)ncc12 [Example 72] | 
8 | 7.47 | > 2.17 | Cc1cccn2c(C(C)(C)NC(=O)c3ccnc4c3OCCNC4)ncc12 [Example 78] | 
9 | 8.37 |  | COc1cccn2c(C(C)(C)NC(=O)c3cccc4c3OCCNC4)ncc12 [Example 51] | Half-life t1/2 [2]: 2.17 h
10 | 7.98 | > 2.17 | Cc1cccn2c(C(C)(C)NC(=O)c3nccc4c3OCCNC4)nc(C)c12 [Example 75] | 
11 | 8.80 | 1.2 | Cc1cccn2c(C(C)(C)NC(=O)c3cccc4c3OCCNC4)nc(C)c12.Cl [Example 53] | 
12 | 7.84 | > 2.17 | CC(C)(NC(=O)c1cccc2c1OCCNC2)c1ncc2ccccn12.Cl [Example 13] | 
13 | 8.54 | 0.183 | Cc1cccn2c(C(C)(C)NC(=O)c3cccc4c3OCCNC4)ccc12 [Example 71] | 
14 | 7.50 | > 2.17 | Cc1cccn2c(C(C)(C)NC(=O)c3cncc4c3OCCNC4)ncc12 [Example 79] | 
15 | 7.70 | 0.45 | Cc1cc2ccccc2c(C(C)(C)NC(=O)c2nccc3c2OCCNC3)n1 [Example 29] | 
16 | 6.87 |  | Cc1cccn2c(C(C)(NC(=O)c3cccc4c3OCCNC4)C3CC3)ncc12 (stereo not shown) [Example 55] | 

Second part, the compound before the results:

Row | Compound | pEC50 [1] | half-life at 1 μM [2] [h] | also measured
17 | Cn1nc(C(C)(C)NC(=O)c2cccc3c2OCCNC3)c2c(F)cccc21 [Example 22] | 8.10 | 0.7 | 
18 | Cc1cc2ccccc2c(C(C)(C)NC(=O)c2cccc3c2OCCNC3)n1 [Example 28] | 8.38 | 0.5 | 
19 | Cn1nc(C(C)(C)NC(=O)c2cccc3c2OCCNC3)c2ccccc21 [Example 18] | 8.36 | 1.22 | pKi [3]: 7.40; pKi [4]: 5.11; pKi [5]: 5.02; pKi [6]: 5.06; pKi [7]: 5.01
20 | Cn1nc(C(C)(C)NC(=O)c2cccc3c2OCCNC3)c2cccc(F)c21 [Example 39] | 8.68 | 0.85 | pKi [3]: 7.54; pKi [4]: 5.05; pKi [5]: 5.02; pKi [6]: 5.06; pKi [7]: 5.01
21 | CC(C)(NC(=O)c1cccc2c1OCCNC2)c1cccc2ccccc12 [Example 7] | 8.85 | 0.533 | 
22 | Cc1cccc2c(C(C)(C)NC(=O)c3cccc4c3OCCNC4)noc12 [Example 32] | 8.55 | 0.9 | 
23 | C[C@H](NC(=O)c1cccc2c1OCCNC2)c1cccc2ccccc12.Cl [Example 9] | 8.55 | 0.317 | 
24 | Cc1cccc2c(C(C)(C)NC(=O)c3cncc4c3OCCNC4)nn(C)c12 [Example 42] | 7.80 | > 2.17 | pKi [3]: 6.27; pKi [4]: 5.02; pKi [5]: 5.02; pKi [6]: 5.06; pKi [7]: 5.01
25 | CC(C)(NC(=O)c1cccc2c1OCCNC2)c1noc2c(Cl)cccc12 [Example 38] | 8.54 | 0.583 | 
26 | Cc1cccn2c(C3(NC(=O)c4cccc5c4OCCNC5)CC3)ncc12 [Example 49] | 8.82 | 1.55 | 
27 | Cn1nc(C(C)(C)NC(=O)c2cccc3c2OCCNC3)c2ccc(F)cc21 [Example 23] | 9.05 | 1.12 | 
28 | CC(C)(NC(=O)c1cccc2c1OCCNC2)c1ccc(Cl)cc1.Cl [Example 17] | 8.09 | 0.233 | 
29 | CC(C)(NC(=O)c1cccc2c1OCCNC2)c1ncnc2ccccc12 [Example 46] | 8.04 | > 2.17 | 
30 | CC(C)(NC(=O)c1cccc2c1OCCNC2)c1ccnc2ccccc12 [Example 6] | 8.08 |  | pKi [3]: 6.98; pKi [4]: 5.05; pKi [5]: 5.02; pKi [6]: 5.06; pKi [7]: 5.01; Half-life t1/2 [2]: 2.17 h
31 | CC(C)(NC(=O)c1cccc2c1OCCNC2)c1ccc(Cl)c(Cl)c1.Cl [Example 8] | 7.65 | 0.0733 | 
32 | Cc1cccc2c(C(C)(C)NC(=O)c3cccc4c3OCCNC4)ncnc12 [Example 45] | 8.04 | 1.83 | 
33 | Cc1cccc2c(C(C)(C)NC(=O)c3ccnc4c3OCCNC4)nn(C)c12 [Example 41] | 7.74 | > 2.17 | 
34 | Cc1ncc(C(C)(C)NC(=O)c2cccc3c2OCCNC3)c2ccccc12 [Example 27] | 9.22 | > 2.17 | 
35 | Cc1nc(C(C)(C)NC(=O)c2cccc3c2OCCNC3)c2ccccc2n1 [Example 64] | 7.65 | > 2.17 | 
36 | CC(C)(NC(=O)c1cccc2c1OCCNC2)c1n[nH]c2c(Cl)cccc12 [Example 44] | 8.89 | > 2.17 | 
37 | Cc1cccc2c(C(C)(C)NC(=O)c3cccc4c3OCCNC4)cnn12 [Example 24] | 8.36 | 1.83 | 
38 | CC(C)(NC(=O)c1cccc2c1OCCNC2)c1nc(C2CC2)c2c(F)cccn12 [Example 61] | 8.20 | 0.75 | 
39 | CC(C)(NC(=O)c1cccc2c1OCCNC2)c1n[nH]c2c(F)cccc12 [Example 43] | 8.66 | 1.45 | 
40 | Cc1cccc2c(C(C)(C)NC(=O)c3cccc4c3OCCNC4)nn(C)c12 [Example 40] | 8.66 | 0.517 | 

From patent US10183940B2, “Aryl and heteroaryl-fused tetrahydro-1,4-oxazepine amides as somatostatin receptor subtype 4 (SSTR4) agonists” (Boehringer Ingelheim International GmbH, priority 2014, dated 2019)
